Here are results for 2 compounds from patent EP4813403A1, “USE OF GLP-1R/GIPR DOUBLE-TARGET AGONIST IN PREPARING ANIMAL DRUG” (Hangzhou Zhongmeihuadong Pharmaceutical Co., Ltd., priority 2023, dated 2025).

The test system of one data set is db/db mice. In words: Pharmacodynamic effects in db/db mice, single subcutaneous administration (blood glucose). In kind it is in vivo. To be noted: single s.c. 10 nmol/kg. On the procedure: In this study, 8-9 week old male db/db mice were used. The db/db mice were placed in an individual ventilated cage (IVC) facility with a controlled temperature (20-26°C) and humidity (40-70%) and a controlled 12h:12 h light-dark cycle. The mice can receive food and water ad libitum. Blood was sampled at the tail tip, and the random base blood glucose was measured by a Roche blood glucose meter. The mice were randomly divided into groups according to the random initial fasting blood glucose and initial body weight (n=6/group), and each group had similar body weight and blood glucose.
After a single subcutaneous administration, the random base blood glucoses were recorded at the set time point (0 to 120 hours, the recording of the random base blood glucose was stopped until there was no difference between the random base blood glucose of the compound and that of the vehicle group), and the daily body weight and food intake were also recorded. The data results were statistically analyzed using GraphPad Prism8, and the statistical differences among the groups were analyzed following a T-Test. Significant differences were identified at p<0.05.
Hypoglycemic Duration: the longest time during which the random base blood glucose of the compound has a significant difference (p<0.05) vs. the vehicle group. Table 13. Hypoglycemic Duration of the Compounds

The target of the next data set is human GLP-1R (Homo sapiens, UniProt P43220). Kind of data set: In vitro binding activity to human GLP-1 receptor ([125I]GLP-1 displacement, crude cell membranes). Details: expressed in transfected cells. To be noted: ratio of the Ki value of the endogenous ligand to the Ki value of the test compound; larger ratio = stronger binding. The procedure:
89 µL of membrane dissolved in binding buffer (50 mM Hepes, pH 7.4, 5 mM MgCl2 , 5 mM EDTA, 0.005% TWEEN, 0.005% HSA) was transferred to a 96-well test plate (5 µg/well). The compound was serially diluted in DMSO, and then, 1 µL of the diluted compound or 100% DMSO was added to the test plate containing the membrane solution. 10 µL of [^125I] […] The test plate was left at room temperature for 90 minutes. The membrane complexes were harvested into a GF/B plate pre-coated with 0.5% PEI by using a Cell Harvester, and washed for 3 times with 500 µL of pre-cooled elution buffer (50 mM Hepes, pH 7.4, 500 mM NaCl) at 4°C. After drying at 37°C for 2 hours, 50 µL of scintillation fluid was added to each well. The plate was read with a MicroBeta2 scintillation counter after sealing and settling for at least 1 hour so as to determine the membrane bound radioligand level.
The IC50 concentration was converted to Ki (Ki was the inhibition constant) using the Cheng-Prusoff equation.

A short description of data set [1]: Pharmacokinetics following single administration in SD rats. To be noted: male, Sprague-Dawley, rat, in vivo, sc. On the procedure:
The compound was administrated to male SD rats (230-268 g, n=3) at a dose of 50.0 nmol/kg (s.c.) or 25.0 nmol/kg (i.v.). […] 30.0 μL of thawed plasma sample was taken. 150 μL of acetonitrile solution (containing 5 ng·mL^-1 Verapamil , 50 ng·mL^-1 Glibenclamide, 200 ng·mL^-1 Tolbutamide and 200 ng·mL^-1 Diclofenac) were added to precipitate protein. The mixture was vortexed for 5 minutes, and centrifuged at 3700 rpm for 8 minutes. 70.0 μL of the supernatant was taken, into which 70.0 μL of 0.5% aqueous formic acid solution was added. The mixture was vortexed for 5 minutes. 15 μL of the mixture solution was sampled and injected into the LC-MS/MS to determine the drug concentration in plasma. 20.0 μL of thawed plasma sample was taken. 60 μL of acetonitrile solution (containing 5 ng·mL^-1 Verapamil, 50 ng·mL^-1 Glibenclamide, 200 ng·mL^-1 Tolbutamide and 200 ng·mL^-1 Diclofenac) were added to precipitate protein. […] The mixture was vortexed for 10 minutes. 10.0 μL of the mixture solution was sampled and injected into the LC-MS/MS to determine the drug concentration in plasma. 30.0 μL of thawed plasma sample was taken. 150 μL of acetonitrile solution (containing 5 ng·mL^-1 Verapamil, 50 ng·mL^-1 Glibenclamide, 200 ng·mL^-1 Tolbutamide and 200 ng·mL^-1 Diclofenac) were added to precipitate protein. The mixture was vortexed for 5 minutes, and centrifuged at 3700 rpm for 8 minutes. 70.0 μL of the supernatant was taken, into which 70.0 μL of 0.5% aqueous formic acid solution was added. The mixture was vortexed for 5 minutes. 10.0 μL of the mixture solution was sampled and injected into the LC-MS/MS to determine the drug concentration in plasma. […] Table 5 Pharmacokinetic Parameters after Subcutaneous Injection of Different Polypeptide Compounds to Rats

human GLP-1R, sequence (P43220 24-463): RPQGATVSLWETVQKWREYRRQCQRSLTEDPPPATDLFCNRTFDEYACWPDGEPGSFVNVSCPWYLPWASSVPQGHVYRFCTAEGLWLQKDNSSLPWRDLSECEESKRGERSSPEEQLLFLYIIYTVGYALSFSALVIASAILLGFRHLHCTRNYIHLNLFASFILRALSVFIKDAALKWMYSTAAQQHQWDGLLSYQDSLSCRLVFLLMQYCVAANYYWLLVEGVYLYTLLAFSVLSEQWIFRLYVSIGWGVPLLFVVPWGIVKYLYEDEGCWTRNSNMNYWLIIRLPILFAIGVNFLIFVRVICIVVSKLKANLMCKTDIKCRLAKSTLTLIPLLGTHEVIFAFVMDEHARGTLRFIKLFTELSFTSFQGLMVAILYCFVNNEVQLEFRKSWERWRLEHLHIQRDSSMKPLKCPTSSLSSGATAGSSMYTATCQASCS

With `CC[C@H](C)[C@H](NC(=O)C(C)(C)NC(=O)[C@H](Cc1ccc(O)cc1)NC(=O)[C@H](CC(=O)O)NC(=O)[C@H](CO)NC(=O)[C@@H](NC(=O)C(C)(Cc1ccccc1)NC(=O)[C@@H](NC(=O)CNC(=O)[C@H](CCC(=O)O)NC(=O)C(C)(C)NC(=O)[C@@H](N)Cc1ccc(O)cc1)[C@@H](C)O)[C@@H](C)O)C(=O)NC(C)(C)C(=O)N[C@@H](CC(C)C)C(=O)N[C@@H](CC(=O)O)C(=O)N[C@@H](CCCCN)C(=O)N[C@@H](CCC(N)=O)C(=O)N[C@@H](C)C(=O)N[C@@H](CCC(N)=O)C(=O)N[C@@H](C)C(=O)N[C@@H](CCC(=O)O)C(=O)N[C@@H](Cc1ccccc1)C(=O)N[C@H](C(=O)N[C@@H](CCCCNC(=O)COCCOCCNC(=O)COCCOCCNC(=O)CC[C@H](NC(=O)CC[C@H](NC(=O)CC[C@H](NC(=O)CCCCCCCCCCCCCCCCC(=O)O)C(=O)O)C(=O)O)C(=O)O)C(=O)N[C@@H](Cc1c[nH]c2ccccc12)C(=O)N[C@@H](CC(C)C)C(=O)N[C@@H](CC(C)C)C(=O)N[C@@H](CCCCN)C(=O)NCC(=O)NCC(=O)N1CCC[C@H]1C(=O)N[C@@H](CO)C(=O)N[C@@H](CO)C(=O)NCC(=O)N[C@@H](C)C(=O)N1CCC[C@H]1C(=O)N1CCC[C@H]1C(=O)N1CCC[C@H]1C(=O)N[C@@H](CO)C(=O)N[C@@H](CCCCN)C(N)=O)C(C)C` (stereo partly drawn) [Compound P015], in the data set on db/db mice (Group 2, longest time with p<0.05 vs. vehicle), the “Hypoglycemic Duration” value was 32 h. At human GLP-1R, the “GLP-1R Ki ratio” value amounted to 0.17. Besides, in data set [1], the Tmax (usually the time at which the peak concentration occurs) was 24 h and the half-life (in general, the time in which the quantity being followed falls by half) was 16.1 ± 1.21 h.
Regarding `CC[C@H](C)[C@H](NC(=O)C(C)(C)NC(=O)[C@H](Cc1ccc(O)cc1)NC(=O)[C@H](CC(=O)O)NC(=O)[C@H](CO)NC(=O)[C@@H](NC(=O)C(C)(Cc1ccccc1)NC(=O)[C@@H](NC(=O)CNC(=O)[C@H](CCC(=O)O)NC(=O)C(C)(C)NC(=O)[C@@H](N)Cc1ccc(O)cc1)[C@@H](C)O)[C@@H](C)O)C(=O)NC(C)(C)C(=O)N[C@@H](CC(C)C)C(=O)N[C@@H](CC(=O)O)C(=O)N[C@@H](CCCCN)C(=O)N[C@@H](CCC(N)=O)C(=O)N[C@@H](C)C(=O)N[C@@H](CCC(N)=O)C(=O)N[C@@H](C)C(=O)N[C@@H](CCC(=O)O)C(=O)N[C@@H](Cc1ccccc1)C(=O)N[C@H](C(=O)N[C@@H](CCCCN)C(=O)N[C@@H](Cc1c[nH]c2ccccc12)C(=O)N[C@@H](CC(C)C)C(=O)N[C@@H](CC(C)C)C(=O)N[C@@H](CCCCNC(=O)COCCOCCNC(=O)COCCOCCNC(=O)CC[C@H](NC(=O)CCCCCCCCCCCCCCCCC(=O)O)C(=O)O)C(=O)NCC(=O)NCC(=O)N1CCC[C@H]1C(=O)N[C@@H](CO)C(=O)N[C@@H](CO)C(=O)NCC(=O)N[C@@H](C)C(=O)N1CCC[C@H]1C(=O)N1CCC[C@H]1C(=O)N1CCC[C@H]1C(=O)N[C@@H](CO)C(=O)N[C@@H](CCCCN)C(N)=O)C(C)C` (stereo partly drawn) [Compound P008], in the data set with db/db mice, the “hypoglycemic duration longer than that of Tirzepatide” value is “more than 16 hours” and the “inhibition of the blood glucose AUC, times of that of P001” value is recorded as 2.3 times. In the data set on db/db mice (Group 1, longest time with p<0.05 vs. vehicle), the “Hypoglycemic Duration” value is 72 h. Also, in data set [1], the Tmax was 13.3 ± 9.24 h and the half-life was 18.7 ± 4.82 h.
